In PubChem BioAssay (NCI) one finds GI50 and TGI data, which are given here for 16 compounds.

Common to all, as to assay: NCI-60 cell line screen, 48 h
Assay [1] deals with SK-MEL-2 melanoma.
The subject of assay [2] is BT-549 breast.
Assay [3] has as its system RPMI-8226 leukemia.
The test system of assay [4] is HOP-62 NSCLC.
In assay [5] the test system is OVCAR-4 ovarian.
The subject of assay [6] is MDA-MB-231 breast.
Assay [7] relates to DU-145 prostate.
For assay [8], the system named is LOX IMVI melanoma.
Assay [9] has as its system HT29 colon.
Assay [10] deals with MCF7 breast.

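A five-concentration, 48-hour dose response in 96-well plates underlies each endpoint, interpolated linearly between surrounding concentrations. Abbreviation: GI50, concentration required for 50% inhibition of growth. TGI denotes the concentration required for complete inhibition of growth.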

Turning to `O=C(O)/C=C/c1ccc[c]([Sb](=[O])([OH])[OH])c1`, the GI50 in [1], in assay [2], in assay [3], in assay [4], in assay [5] and in assay [6] was more than 100 µM each time. Besides, the GI50 in [7], in assay [8] and in assay [9] was more than 100 µM throughout. Also, the TGI in assay [1], in assay [2], in assay [3], in assay [4], in assay [5] and in [6] was more than 100 µM throughout. Besides, the TGI in assay [7], in assay [8] and in assay [9] was more than 100 µM each time.

Consider `Cc1cc(C)nc(NS(=O)(=O)c2ccc(Nc3c4ccccc4nc4c(C(=O)Nc5ccc(S(=O)(=O)Nc6cc(C)on6)cc5)ccc(Cl)c34)cc2)n1`, for which the TGI in assay [3] was 57.8 µM; in [4], 42.5 µM; in assay [5], 65.3 µM; in assay [8] it was more than 100 µM; in assay [9], 47.8 µM.

On to `S=c1nc(C(c2ccccc2)c2ccccc2)[nH][nH]1`, for which the TGI in [1], in assay [4], in assay [8] and in assay [9] was more than 100 µM throughout.

Consider `Cc1c(NC(=O)CCl)c(=O)oc2c(C)c3occc(=O)c3cc12`, for which the TGI in [3] is 60.1 µM; in assay [4] it was 29.8 µM; in assay [5], 25.6 µM; in assay [7], 74.5 µM; in [10], 66.2 µM; in [9], 35.3 µM.

Turning to `COc1cccc2c1C(=O)c1c(O)c3c(c(O)c1C2=O)C[C@@](O)(C(C)=O)C[C@@H]3OC1CC([N+]([O-])(Cc2ccccc2)Cc2ccccc2)C(O)C(C)O1` (stereo not given in full), the TGI in [1] is 3.46 µM; in [4], 2.98 µM; in assay [5] it was 4.17 µM; in assay [8], 2.41 µM; in assay [9] it was 3.14 µM.

For the compound `O=c1/c(=C/c2c(O)ccc3ccccc23)sc2nc3ccccc3n12`, the TGI in assay [1], in [4], in [5], in [8] and in assay [9] was more than 100 µM in each case.

Consider `O=C1C=CC(=O)C2C1Cc1ccccc1C2c1ccccc1` (stereo not given), for which the TGI in assay [1] is 90.1 µM; in assay [3], 67.6 µM; in assay [4], more than 100 µM; in assay [5], 46 µM; in assay [8], more than 100 µM; in assay [9], more than 100 µM.

For `CCC[CH2][Sn]([CH2]CCC)([CH2]CCC)[O]C(=O)C(OC(C)=O)c1ccccc1` (stereo not given), the GI50 in assay [3] is 0.0212 µM; in assay [4], 0.149 µM; in [5], 0.103 µM; in assay [8], 0.107 µM; in assay [9] it was 0.127 µM. Moreover, the TGI was 0.298 µM in assay [3]; 0.287 µM in [4]; 0.221 µM in assay [5]; 0.23 µM in [8]; 0.26 µM in assay [9].

On to `Cn1cnc([N+](=O)[O-])c1Sc1nnnn1C`, for which the TGI was 37.3 µM in assay [1]; more than 100 µM in assay [3]; more than 100 µM in [4]; 30.8 µM in assay [5]; 26.6 µM in [8]; 40.5 µM in assay [9].

Turning to `COc1cc(OC)cc(-c2nc3sccn3c2/C=N/N=C(N)N)c1`, the GI50 is 16.7 µM in assay [1]; 6.87 µM in [2]; 10.7 µM in [3]; 9.95 µM in [4]; 6.91 µM in assay [6]; 6.49 µM in assay [8]. The GI50 is 9.41 µM in [10] and 8.14 µM in [9]. Also, the TGI in assay [1] is more than 50 µM; in assay [2], 14 µM; in assay [3], 21.6 µM; in [4], 17 µM; in [6], 13.6 µM; in assay [8], 12.8 µM. Besides, the TGI in [10] worked out at 20.1 µM; in assay [9] it was 14.9 µM.

As to `CSC(=Nc1ccccc1Cl)NC(=O)c1ccc(Br)cc1`, the TGI is more than 100 µM in assay [1]; more than 100 µM in assay [3]; 55.3 µM in [4]; 38.4 µM in assay [5]; more than 100 µM in assay [8]; more than 100 µM in [9].

Regarding `NCCOCn1cc(Cc2cccc(OCc3ccccc3)c2)c(=O)[nH]c1=O`, the TGI in assay [1], in [3], in assay [5], in [8] and in [9] was more than 100 µM throughout.

Take `Cc1ccc(NC(=O)C(=O)C(C(=O)c2ccc3ccccc3c2)C2OC(=O)c3ccccc32)c(C)c1` (stereo not given): the TGI was found to be 26.8 µM in [1]; 40.4 µM in assay [3]; 22.4 µM in assay [4]; 25.6 µM in [5]; 32.2 µM in assay [8]; 57.6 µM in assay [9].

For `CCN(CC)CCCOc1ccc2ncnc(Nc3ccc(Oc4cccc(C(F)(F)F)c4)c(Cl)c3)c2c1`, the GI50 is 1.54 µM in [5], 1.79 µM in [6], 1.39 µM in assay [7] and 1.63 µM in [8]. Further, the TGI came out at 2.99 µM in [5], 3.24 µM in assay [6], 2.74 µM in [7] and 3.06 µM in [8].

With `O=C1Nc2ccccc2/C1=C\c1cccc(/C=C2/C(=O)Nc3ccccc32)n1`, the GI50 in assay [1] was 0.631 µM; in [3], 0.232 µM; in [4], 1.96 µM; in [5] it was 0.718 µM; in [6], 1.25 µM; in assay [7], 0.881 µM. Further, the figures for the GI50 in [8], in assay [10] and in [9] were 0.19 µM, 0.226 µM and 0.226 µM, respectively. Besides, the TGI in assay [1] came out at 1.62 µM; in [3] it was 0.699 µM; in assay [4], 3.92 µM; in assay [5], 1.99 µM; in assay [6], 2.77 µM; in assay [7] it was 2.26 µM. The values for the TGI in assay [8], in [10] and in [9] were 0.44 µM, 0.851 µM and 0.529 µM, respectively.

For `O=C1OC(c2ccccc2)(c2ccccc2)c2ccc3ccc(F)cc3c21`, the TGI in assay [1], in [3], in [4], in assay [5], in [8] and in assay [9] was more than 100 µM throughout.
